PubChem BioAssay AID1845202 (Molecular Pharmacology Branch, DTP, NCI, 2023)

Test system: DMS 114 tumor spheroids, viability % test/control
Assay: Anticancer human tumor DMS 114 cell line growth inhibition;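 further: spheroids exposed to compounds for 7 days before read-out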;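 on viability, T/C: luminescence used as a proxy for viable cells; 100% = DMSO vehicle control viability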
Settings: spheroids with HUVEC and MSC; for IC50: curve of first compound; for viability, T/C: stronger effect = lower value
Source text: Multicellular complex tumor spheroid response to DNA repair inhibitors in combination with DNA-damaging drugs
This study explores the anticancer activities of DNA-damaging drugs and inhibitors of DNA damage repair, both as single agents and in combinations. Complex tumor spheroids comprised of malignant cells, endothelial cells and mesenchymal stem cells served as an in vitro model for human solid tumors. This model system incorporates physiologically relevant features and patient-derived or established malignant cell lines with clinically relevant genetic alterations from many tumor types. Twenty-six patient-derived or established malignant cell lines were evaluated representing sarcoma, melanoma, small cell lung cancer (SCLC), non-small cell lung cancer (NSCLC), as well as bladder, ovarian and pancreatic cancers. The concentration ranges selected for each drug and investigational agent were based upon clinically achievable concentrations if the clinical Cmax of the agent was known.
Compounds. The drugs and compounds olaparib (NSC753686), talazoparib (NSC767125), berzosertib (NSC777718), elimusertib (NSC800525), nedisertib (NSC802822), VX-984 (NSC792969), AZD-1390 (NSC803789), temozolomide (NSC362856), topotecan (NSC609699), trabectedin (NSC813783), staurosporine (NSC755774), and gemcitabine (NSC613327) were obtained from the National Cancer Institute (NCI) Developmental Therapeutics Program Chemical Repository. The FDA-approved anticancer drug set is available from the Developmental Therapeutics Program at https://dtp.cancer.gov/organization/dscb/obtaining/available_plates.htm. […] The stock solutions were prepared in dimethyl sulfoxide (DMSO, Sigma-Aldrich, St. Louis, MO, cat. D2650) at 400-fold the tested concentration and stored at -70 degrees C. Prior to their use, the stock solutions were diluted in fresh medium and the final DMSO concentration in the assay was 0.25% (v/v). All drugs and investigational agents were tested over a range starting from a high concentration at or near the clinical Cmax and decreasing in half-log increments. If the clinical Cmax for an agent had not been determined, the highest concentration tested was 10 microM.
Cell Lines. The patient-derived cancer cell (PDC) lines: 156681-154-R-J1-PDC, 283228-195-R-J1-PDC, 287954-098-R-J1-PDC, 292921-168-R-J2-PDC, 349418-098-R-PDC, 425362-245-T-J1-PDC, 556581-035-R-J1-PDC, and BL0293-F563-PDC were received from the NCI Patient-Derived Models Repository (PDMR, https://pdmr.cancer.gov). The established cell lines HS-SY-2 (RRID:CVCL_8719), MPNST, and SYO-1 (RRID:CVCL_7146) were obtained from the Sloan Kettering Institute. The alveolar soft parts sarcoma cell line ASPS-1 (RRID:CVCL_S738) was established at the NCI and grown from internal seed stocks. The following established cell lines were purchased from the American Type Culture Collection (ATCC, Manassas, VA): G-401 (ATCC, cat. CRL-1441, RRID:CVCL_0270), SW982 (ATCC, cat. HTB-93, RRID:CVCL_1734), VA-ES-BJ (ATCC, cat. CRL-2138, RRID:CVCL_1785), NCI-H719 (ATCC, cat. CRL-5837, RRID:CVCL_1582), NCI-H196 (ATCC, cat. CRL-5823, RRID:CVCL_1509), NCI-H841 (ATCC, cat. CRL-5845, RRID:CVCL_1595), NCI-H1618 (ATCC, cat. CRL-5879, RRID:CVCL_1480), NCI-H1876 (ATCC, cat. CRL-5902, RRID:CVCL_1503), DMS 114 (ATCC, cat. CRL-2066; RRID:CVCL_1174), NCI-H211 (ATCC, cat. CRL-5824; RRID:CVCL_1529), and SW 1271 (ATCC, cat. CRL-2177, RRID:CVCL_1716). The small cell lung cancer cell line COR-L88 was purchased from Sigma-Aldrich (cat. 92031917-1VL, RRID:CVCL_1141). The non-small cell lung cancer cell lines NCI-H226 (RRID:CVCL_1544) and NCI-H322M (RRID:CVCL_1557) were established at the NCI and grown from internal seed stocks. Pooled donor human umbilical vein endothelial cells (HUVEC, Lonza, cat. CC-2519) and human mesenchymal stem cells (hMSC, Lonza, cat. PT-2501) were purchased from Lonza (Walkersville, MD).
Cell Culture. All cells were maintained in an incubator at 37 degrees C and 5% CO2 with 95% humidity. […]

Cc1cc(C)c(CNC(=O)c2cc(-c3ccc(CN4CCOCC4)cc3)cc3c2cnn3C2CCCC2)c(=O)[nH]1 + CC[C@@]1(O)C(=O)OCc2c1cc1n(c2=O)Cc2cc3c(CN(C)C)c(O)ccc3nc2-1
IC50 (second compound 0.003 µM): > 10000 nM
IC50 (second compound 0.00949 µM): > 10000 nM
IC50 (second compound 0.03 µM): < 31.6 nM
IC50 (second compound 0.0949 µM): < 31.6 nM
IC50 (second compound 0.3 µM): < 31.6 nM
viability, T/C (second compound 0.003 µM, first compound 0.0316 µM): 112%
viability, T/C (second compound 0.003 µM, first compound 0.1 µM): 117%
viability, T/C (second compound 0.003 µM, first compound 0.316 µM): 108%
viability, T/C (second compound 0.003 µM, first compound 1 µM): 106%
viability, T/C (second compound 0.003 µM, first compound 3.16 µM): 98.2%
viability, T/C (second compound 0.003 µM, first compound 10 µM): 59.6%
viability, T/C (second compound 0.00949 µM, first compound 0.0316 µM): 96.2%
viability, T/C (second compound 0.00949 µM, first compound 0.1 µM): 105%
viability, T/C (second compound 0.00949 µM, first compound 0.316 µM): 95.4%
viability, T/C (second compound 0.00949 µM, first compound 1 µM): 97.1%
viability, T/C (second compound 0.00949 µM, first compound 3.16 µM): 84.9%
viability, T/C (second compound 0.00949 µM, first compound 10 µM): 58.9%
viability, T/C (second compound 0.03 µM, first compound 0.0316 µM): 33.3%
viability, T/C (second compound 0.03 µM, first compound 0.1 µM): 39.5%
viability, T/C (second compound 0.03 µM, first compound 0.316 µM): 28.3%
viability, T/C (second compound 0.03 µM, first compound 1 µM): 35.5%
viability, T/C (second compound 0.03 µM, first compound 3.16 µM): 32.1%
viability, T/C (second compound 0.03 µM, first compound 10 µM): 30.7%
viability, T/C (second compound 0.0949 µM, first compound 0.0316 µM): 16%
viability, T/C (second compound 0.0949 µM, first compound 0.1 µM): 15.5%
viability, T/C (second compound 0.0949 µM, first compound 0.316 µM): 14.8%
viability, T/C (second compound 0.0949 µM, first compound 1 µM): 16%
viability, T/C (second compound 0.0949 µM, first compound 3.16 µM): 17.2%
viability, T/C (second compound 0.0949 µM, first compound 10 µM): 15.5%
viability, T/C (second compound 0.3 µM, first compound 0.0316 µM): 9.14%
viability, T/C (second compound 0.3 µM, first compound 0.1 µM): 9.67%
viability, T/C (second compound 0.3 µM, first compound 0.316 µM): 9.76%
viability, T/C (second compound 0.3 µM, first compound 1 µM): 10.1%
viability, T/C (second compound 0.3 µM, first compound 3.16 µM): 12.1%
viability, T/C (second compound 0.3 µM, first compound 10 µM): 17.6%

Cc1sc2c(c1C)C(c1ccc(Cl)cc1)=NC(CC(=O)Nc1ccc(O)cc1)c1nnc(C)n1-2 (stereo not given) + CC[C@@]1(O)C(=O)OCc2c1cc1n(c2=O)Cc2cc3c(CN(C)C)c(O)ccc3nc2-1
IC50 (second compound 0.003 µM): 89.3 nM
IC50 (second compound 0.00949 µM): 56.4 nM
IC50 (second compound 0.03 µM): < 9.49 nM
IC50 (second compound 0.0949 µM): < 9.49 nM
IC50 (second compound 0.3 µM): < 9.49 nM
viability, T/C (second compound 0.003 µM, first compound 0.00949 µM): 96.7%
viability, T/C (second compound 0.003 µM, first compound 0.03 µM): 97.2%
viability, T/C (second compound 0.003 µM, first compound 0.0949 µM): 45.5%
viability, T/C (second compound 0.003 µM, first compound 0.3 µM): 18.9%
viability, T/C (second compound 0.003 µM, first compound 0.949 µM): 7.67%
viability, T/C (second compound 0.003 µM, first compound 3 µM): 4.78%
viability, T/C (second compound 0.00949 µM, first compound 0.00949 µM): 85%
viability, T/C (second compound 0.00949 µM, first compound 0.03 µM): 67.4%
viability, T/C (second compound 0.00949 µM, first compound 0.0949 µM): 35.9%
viability, T/C (second compound 0.00949 µM, first compound 0.3 µM): 12.1%
viability, T/C (second compound 0.00949 µM, first compound 0.949 µM): 5.26%
viability, T/C (second compound 0.00949 µM, first compound 3 µM): 3.47%
viability, T/C (second compound 0.03 µM, first compound 0.00949 µM): 24.8%
viability, T/C (second compound 0.03 µM, first compound 0.03 µM): 19.4%
viability, T/C (second compound 0.03 µM, first compound 0.0949 µM): 13.1%
viability, T/C (second compound 0.03 µM, first compound 0.3 µM): 8.01%
viability, T/C (second compound 0.03 µM, first compound 0.949 µM): 3.14%
viability, T/C (second compound 0.03 µM, first compound 3 µM): 1.45%
viability, T/C (second compound 0.0949 µM, first compound 0.00949 µM): 11.7%
viability, T/C (second compound 0.0949 µM, first compound 0.03 µM): 9.99%
viability, T/C (second compound 0.0949 µM, first compound 0.0949 µM): 5.31%
viability, T/C (second compound 0.0949 µM, first compound 0.3 µM): 2.68%
viability, T/C (second compound 0.0949 µM, first compound 0.949 µM): 1.52%
viability, T/C (second compound 0.0949 µM, first compound 3 µM): 0.93%
viability, T/C (second compound 0.3 µM, first compound 0.00949 µM): 5.77%
viability, T/C (second compound 0.3 µM, first compound 0.03 µM): 4.7%
viability, T/C (second compound 0.3 µM, first compound 0.0949 µM): 3.42%
viability, T/C (second compound 0.3 µM, first compound 0.3 µM): 1.6%
viability, T/C (second compound 0.3 µM, first compound 0.949 µM): 0.9%
viability, T/C (second compound 0.3 µM, first compound 3 µM): 0.73%
